This is an account of results in paper PMC10210221, “Interaction of Pexiganan (MSI-78)-Derived Analogues Reduces Inflammation and TLR4-Mediated Cytokine Secretion: A Comparative Study” (ACS Omega, 2023).

≈ marks a conversion by molar mass, not a printed value. Where a SMILES comes first, the peptide text is derived from it. Where no end group is shown, it is not given here. [ ]: non-standard residue; d: D form.

A short description of series [1]: XTT cytotoxicity / LD50 calculation. The series is classed as cell-based, murine. As to conditions: mouse, RAW 264.7 cells (macrophages); peptides 2 h, then XTT 2 h; concentration at which 50% of cells were dead, from linear graph. How it is done: (§1) LD50 is the calculated amount of chemical that causes the death of 50% of the population tested, in this case, RAW 264.7. Each well was seeded with 1 × 10^5 cells 1 day before the experiment. Peptides were added in several doses and incubated with the cells for 2 h, followed by 2 h of XTT. We performed a linear graph and calculated the concentration in which 50% were dead.
(§2) DMEM supplemented with low endotoxin FBS (10%), L-glutamine (1%), sodium pyruvate (1%), pen–strep (1%), and unessential amino acids (1%) was used to grow RAW 264.7 cells at 37 °C in a humidified atmosphere containing 5% CO2 and 95% air. A 96-well Falcon plate was utilized for the assay, with each well containing 1 × 10^5 cells in a 200 μL medium, cultured overnight and washed with phosphate-buffered saline (PBS) before the experiment. Peptides were added to the wells at various concentrations for 2 h, followed by XTT with fresh medium for another 2 h. The optical density was measured at 450 nm using an enzyme-linked immunosorbent assay plate reader, and cell viability was determined relative to the control.

Series [2] deals with Lactobacilli ATCC 25258. The series is classed as cell-based. As to conditions: ATCC 25258, 18 h. The protocol: (§3) The peptide’s minimal inhibitory concentration (MIC) was examined as previously described.[44] In brief, sterile 96-well U-bottom polystyrene plates were used to evaluate peptide activity. Bacterial cells including S. Typhi ATCC 14028s, E. coli ATCC 35218, S. aureus ATCC P8538, and Lactobacilli ATCC 25258 were cultured in Mueller Hinton broth (MHB) at 37 °C overnight. The cells were then washed, centrifuged, and re-suspended in MHB medium. Afterward, 50 μL aliquots of suspended bacteria (1 × 10^6 colony forming units, CFU mL^–1) were added to 50 μL BM2 medium, which contained peptides in serial twofold dilutions. The plates were then incubated at 37 °C for 18 h. The inhibition of growth was determined by measuring the absorbance at 600 nm using a microplate autoreader. The MIC was defined as the concentration at which 90% growth inhibition was observed after 18 h of incubation.

The subject of series [3] is E. coli ATCC 35218. The series is classed as cell-based, Escherichia coli. To be noted: ATCC 35218, 18 h. The protocol:
as §3

Series [4] has as its system pig erythrocytes. It counts as cell-based. As to conditions: pH 7.3. The protocol: To examine the hemolytic properties of the peptides, a concentration of 100 μM was used. A 4% suspension of pig erythrocytes, freshly collected and washed three times in phosphate-buffered saline (PBS, pH 7.3), was used for this purpose. After incubation at 37 °C for 1 h, the suspension was centrifuged at 800g for 10 min, and the absorbance at 540 nm was measured. Complete hemolysis was determined by adding 1% Triton X-100, while adding only PBS was used to determine 0% hemolysis.The hemolysis calculation was as follows: % hemolysis = (ODPeptide – ODBuffer)/(ODTriton1% – ODBuffer) × 100.

For series [5], the system named is S. Typhi ATCC 14028s. The series is classed as cell-based, Salmonella Typhi. As to conditions: ATCC 14028, 18 h. The protocol:
as §3

Series [6] concerns S. aureus ATCC P8538. The series is classed as cell-based, Staphylococcus aureus. As to conditions: ATCC P8538, 18 h. How it is done: as §3
Series [7] deals with RAW 264.7 cells. The series can be described thus: XTT cytotoxicity / LD50 calculation. To be noted: XTT, RAW 264.7 macrophages. It counts as cell-based, murine. The protocol:
as §1, §2

Consider “KKKKKFIGLFAGGIVLAFKKKK-NH2 [MSI-Seg-Scr]”, for which the 50% cytotoxic concentration (CC50) at 2 h in series [1] is over 100 µM. For the same compound, the “MIC Lactobacilli ATCC 25258” value in series [2] was 12.5 µM. Moreover, the “MIC E. coli ATCC 35218” value in series [3] amounted to 12.5 µM. Further, the “% hemolysis (100 μM)” value in series [4] came out at 3.9 ± 1.4%. For the same compound, the “MIC S. Typhi ATCC 14028s” value in series [5] stood at 25 µM. The “MIC S. aureus ATCC P8538” value in series [6] is 12.5 µM.

Take KKKKKKKGIGFLAFGAFVKILK-NH2 [MSI-N7K]: in series [7], the “Concentration toxic to RAW 264.7 cells” value was 60 µM. In addition, the CC50 at 2 h in series [1] is 60.9 µM. The “MIC Lactobacilli ATCC 25258” value in series [2] is 25 µM. The “MIC E. coli ATCC 35218” value in series [3] stood at 25 µM. Moreover, in series [4], the “% hemolysis (100 μM)” value came out at 10 ± 5.6%. For the same compound, the “MIC S. Typhi ATCC 14028s” value in series [5] was determined as 25 µM. Also, the “MIC S. aureus ATCC P8538” value in series [6] was 25 µM.

With KKKKKGIGFLAFGAFVILKKKK-NH2 [MSI-Seg], the CC50 at 2 h in series [1] was over 100 µM. Besides, the “MIC Lactobacilli ATCC 25258” value in series [2] is over 50 µM. Moreover, in series [3], the “MIC E. coli ATCC 35218” value was determined as 12.5 µM. Further, the “% hemolysis (100 μM)” value in series [4] turned out to be 16.6 ± 4.2%. Moreover, the “MIC S. Typhi ATCC 14028s” value in series [5] amounted to 25 µM. In addition, the “MIC S. aureus ATCC P8538” value in series [6] was 12.5 µM.

In the case of “GIGKFLKKAKKFGKAFVKILKK-NH2 [MSI-78, Pexiganan]”, in series [7], the “Concentration toxic to RAW 264.7 cells” value was 40 µM. Besides, in series [1], the CC50 at 2 h was 43.1 µM. Also, the “MIC Lactobacilli ATCC 25258” value in series [2] amounted to 1.56 µM. In series [3], the “MIC E. coli ATCC 35218” value turned out to be 3.12 µM. The “% hemolysis (100 μM)” value in series [4] was 15.2 ± 1.1%. Moreover, in series [5], the “MIC S. Typhi ATCC 14028s” value was 12.5 µM. Also, in series [6], the “MIC S. aureus ATCC P8538” value is 6.25 µM.

As for “KKKKKGIGGLAGGAFVILKKKK-NH2 [MSI-Seg-F2G]”, the CC50 at 2 h in series [1] was over 100 µM. In addition, the “MIC Lactobacilli ATCC 25258” value in series [2] was over 50 µM. For the same compound, in series [3], the “MIC E. coli ATCC 35218” value was over 50 µM. Further, the “% hemolysis (100 μM)” value in series [4] is recorded as 1.2 ± 30.2%. Besides, the “MIC S. Typhi ATCC 14028s” value in series [5] was over 50 µM. In series [6], the “MIC S. aureus ATCC P8538” value worked out at 25 µM.

In the case of `CC[C@H](C)[C@H](NC(=O)CNC(=O)[C@H](CCCCN)NC(=O)[C@H](CCCCN)NC(=O)[C@H](CCCCN)NC(=O)[C@H](CCCCN)NC(=O)[C@@H](N)CCCCN)C(=O)NCC(=O)N[C@H](Cc1ccccc1)C(=O)N[C@@H](CC(C)C)C(=O)N[C@@H](C)C(=O)N[C@H](Cc1ccccc1)C(=O)NCC(=O)N[C@@H](C)C(=O)N[C@@H](Cc1ccccc1)C(=O)N[C@H](C(=O)N[C@H](C(=O)N[C@@H](CC(C)C)C(=O)N[C@@H](CCCCN)C(=O)N[C@@H](CCCCN)C(=O)N[C@@H](CCCCN)C(=O)N[C@@H](CCCCN)C(N)=O)[C@@H](C)CC)C(C)C` [MSI-Seg-F2F] (H-KKKKKGIG[dF]LA[dF]GAFVILKKKK-NH2), the CC50 at 2 h in series [1] was over 100 µM. Also, the “MIC Lactobacilli ATCC 25258” value in series [2] turned out to be 12.5 µM (≈ 31 µg/mL). Further, the “MIC E. coli ATCC 35218” value in series [3] turned out to be 12.5 µM (≈ 31 µg/mL). The “% hemolysis (100 μM)” value in series [4] worked out at 8.1 ± 3.2%. For the same compound, the “MIC S. Typhi ATCC 14028s” value in series [5] worked out at 25 µM (≈ 61.9 µg/mL). Moreover, in series [6], the “MIC S. aureus ATCC P8538” value was 12.5 µM (≈ 31 µg/mL).
